Results taken from patent US9157917B2, “Applications of Indoloindole and Indoloquinoline dyes” (Biosynth AG, priority 2010, dated 2015).
Values belong to the compound of their own block, whether it stands above or below them.

Columns and labels:
[1] = Release of dyes from precursors through heat in PP tubes containing PE pellets; assay type: physicochemical; conditions: PP tubes and PE pellets (emptied and flushed with water) after heating for 40 min at 90° C.
Experimental: As a further example the release of Aldol™ 470-, 495-, and 515 dyes from various Aldol™ acetate precursors through heat is given: The compounds were incubated at room temperature and at 90° C. for 40 min in PP tubes containing PE pellets. […] Whereas for all tubes at room temperature neither coloration nor fluorescence was detected, the Aldol™ acetates but not the Aldol™ galactosides were instable at 90° C. and led to fluorescence of the PP and PE host (Table 2).

[2] = Fluorescence of IO dyes in various hosts; assay type: physicochemical
Experimental: In this description various IO dyes are given as illustrative examples (Scheme I) but these examples shall not limit the invention in any way. It was discovered that IO/IQ dyes have a strong solvatochromic effect. When, for example, the 470-, 495- and 515-dyes were dissolved in a series of solvents, the fluorescence of the solution was higher the lower the polarity of the solvent was. […] It was also discovered that the fluorescence color might change with the solvent used.

[3] = Application of aqueous dye suspensions to PP tubes and PE pellets at different temperatures; assay type: physicochemical; conditions: for Fluorescence of PP tubes and PE pellets, comparison between dyes: 22° C., 37° C., 90° C.
Experimental: The application of dye to plastic can be improved by increasing the temperature. Aqueous suspensions of Aldol™ 470, 495, 515 and 518 dyes in PP tubes containing PE pellets were incubated at three different temperatures (22° C., 37° C., and 90° C.). The resulting fluorescence of PP tubes and PE pellets was much stronger after incubation at 90° C. for 5 hours than after 24 hours incubation at 37° C. or 22° C. Incubation at 37° C. led to more fluorescence than incubation at 22° C. Fluorescence after incubation at 22° C. was very weak, except for PE pellets incubated in the presence of Aldol™ 495 dye and Aldol™ 515 dye.

[4] = Excitation and emission spectra of dye in polypropylene; assay type: physicochemical; conditions: in polypropylene microtiter plate
Experimental: The excitation and emission spectra of the Aldol™ 495 dye in PP were measured in a standard plate reader using a polypropylene microtiter plate that has been incubated with broth containing Aldol™ 495 beta-D-galactoside and an E. coli culture. […] The optimal excitation is at 310 nm (FIG. 1).

[5] = system: various bacterial strains; experiment: Nonanoate indicators in buffered peptone water in polystyrene plates; assay type: cell-based; conditions: 0.2 mM, polystyrene plate, 37° C., excitation 360 nm, emission 460 nm
Experimental: Buffered peptone water containing either 0.4 mM Aldol™ 495 nonanoate or 0.2 mM 4-methylumbelliferyl nonanoate was dispensed in a microtiter plate and inoculated with about 700 cfu/ml of various bacterial strains. […] An excitation wavelength of 360 nm was used for both dyes, the emission wavelength was 560 nm for the Aldol™ 495 dye and 460 nm for the 4-methylumbelliferone.

E. coli [6] = experiment: Cultures with paraffin oil overlay
S. enteritidis [7] = experiment: Cultures with paraffin oil overlay
E. coli [8] = experiment: Fluorescence of colonies on membrane filters; assay type: cell-based; conditions: Naked nutrient agar, 0.4 mM, 14-16 hours at 37° C.
[9] = Stamping on LDPE film, stability to treatments; assay type: physicochemical
Experimental: Three pieces of felt were soaked with ethanol containing 0.5 mM of Aldol™ 470, Aldol™ 495 or Aldol™ 515 dye respectively. A stamp was pressed first on the felt then on a piece of low density polyethylene film. The film was left to dry for 15 minutes and then exposed to various treatments (Table 4).

[10] = system: phosphatase coupled goat anti rabbit antibody; experiment: Dot blot on nitrocellulose membrane; assay type: biochemical; conditions: 0.4 mM in assay buffer pH 9.5
Excerpt: Western Blotting is a routine technique for protein analysis. A widely used, cost-effective and simple way for signal detection is the reaction of a chromogenic phosphatase indicator with alkaline phosphatase coupled to the secondary antibody, yielding a colored band or spot. The IO/IQ indicators offer an easy way for fluorescent and chromogenic western blotting based on the same principle as the common chromogenic western blotting, the only difference being the phosphatase indicator. […] In addition, after longer incubation the dots were also clearly identified under white light through their yellow color. Thus, IO/IQ indicators offer a way of performing chromogenic and fluorogenic blotting assay at the same time.
0.16 μg of beta-galactosidase in 4 μl of phosphate buffer was spotted on a nitrocellulose membrane. The membrane was dried for 15 min and then blocked in TBS-T (20 mM Tris-HCl, 150 mM NaCl, 0.05% Tween20, pH 7.5) with 5% BSA for one hour. Then the membrane was incubated with a rabbit anti-beta-galactosidase antibody in TBS-T/5% BSA for one hour, washed three times for 5 min in TBS-T, and incubated with a phosphatase coupled goat anti rabbit antibody in TBS-T/5% BSA for one hour. […]

E. coli [11] = experiment: Peptone broth culture in tubes
[12] = biological target: E. coli beta-galactosidase (Escherichia coli, UniProt P00722)
E. coli beta-galactosidase, sequence (P00722 2-1024): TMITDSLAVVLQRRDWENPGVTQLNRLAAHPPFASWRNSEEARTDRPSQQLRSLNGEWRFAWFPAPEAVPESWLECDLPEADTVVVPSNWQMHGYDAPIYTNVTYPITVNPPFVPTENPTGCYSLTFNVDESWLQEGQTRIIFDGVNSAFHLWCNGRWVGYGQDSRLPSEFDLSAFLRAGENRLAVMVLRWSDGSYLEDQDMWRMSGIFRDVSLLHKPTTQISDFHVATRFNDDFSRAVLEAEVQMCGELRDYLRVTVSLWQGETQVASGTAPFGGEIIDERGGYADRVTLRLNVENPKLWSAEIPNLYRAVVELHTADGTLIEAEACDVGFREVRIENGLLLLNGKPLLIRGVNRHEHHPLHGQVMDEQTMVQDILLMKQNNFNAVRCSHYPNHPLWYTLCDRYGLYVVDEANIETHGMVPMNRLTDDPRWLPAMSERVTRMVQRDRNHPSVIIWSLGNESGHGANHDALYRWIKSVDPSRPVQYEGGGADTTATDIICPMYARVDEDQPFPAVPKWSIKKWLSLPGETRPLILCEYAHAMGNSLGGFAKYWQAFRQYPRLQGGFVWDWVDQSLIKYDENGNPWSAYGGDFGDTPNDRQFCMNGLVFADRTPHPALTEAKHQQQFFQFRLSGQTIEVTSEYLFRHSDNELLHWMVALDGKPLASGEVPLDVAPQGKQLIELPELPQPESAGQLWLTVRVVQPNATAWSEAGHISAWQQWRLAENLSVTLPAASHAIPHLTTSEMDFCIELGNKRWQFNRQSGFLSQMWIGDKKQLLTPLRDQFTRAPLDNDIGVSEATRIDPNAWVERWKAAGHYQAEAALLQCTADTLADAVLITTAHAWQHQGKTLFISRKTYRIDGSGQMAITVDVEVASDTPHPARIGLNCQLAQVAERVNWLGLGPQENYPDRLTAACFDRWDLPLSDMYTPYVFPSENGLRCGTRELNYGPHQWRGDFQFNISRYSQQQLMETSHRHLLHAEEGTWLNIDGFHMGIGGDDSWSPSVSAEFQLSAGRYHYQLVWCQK
Experimental: 100 mM sodium phosphate buffer (pH 7.3) containing 1 mM MgCl2 and 0.5 mM Aldol™ 495 beta-D-galactoside, was distributed into glass, polystyrene and polypropylene tubes (two of each). Purified E. coli beta-galactosidase was added to half of the tubes, the other half serving as negative controls.

S. enteritidis [13] = experiment: Peptone broth culture in tubes
[14] = paraffin oil overlay 0 μl, 16 h
[15] = paraffin oil overlay 0 μl, 21 h
[16] = paraffin oil overlay 0 μl, 40 h
[17] = paraffin oil overlay 50 μl, 16 h
[18] = paraffin oil overlay 50 μl, 21 h
[19] = paraffin oil overlay 50 μl, 40 h
[20] = paraffin oil overlay 300 μl, 16 h
[21] = paraffin oil overlay 300 μl, 21 h
[22] = paraffin oil overlay 300 μl, 40 h

Color of tube [1]: Very light green
Structure (SMILES): CC(=O)Oc1cn(-c2ccccc2C(=O)c2cccn2C)c2cc(Cl)ccc12 [Aldol ™ 495 acetate]

Fluorescence intensity ([2]; Acetone): Strong | Fluorescence color ([2]; Mineral oil): Green | Fluorescence color ([2]; Paraffin oil): Green | Fluorescence intensity ([2]; Silicon oil): Medium | Fluorescence color ([2]; Water): None | Fluorescence intensity ([2]; Water): None | Fluorescence of PP tubes and PE pellets after 90° C. for 5 hours versus 24 hours at 37° C. or 22° C. [3]: much stronger | Fluorescence of PP tubes and PE pellets, comparison between dyes [3]: more fluorescence than Aldol™ 515 dye | Emission maximum [4]: 510 nm | Optimal excitation [4]: 310 nm
Structure (SMILES): Cn1cccc1-c1c2n(c3ccccc13)-c1cc(Cl)ccc1C2=O [Aldol™ 495 dye]

Structure (SMILES): CCCCCCCCC(=O)Oc1ccc2c(C)cc(=O)oc2c1 [4-methylumbelliferyl nonanoate, reference compound]
Fluorescence of C9 esterase negative strains and sterile control [5]: strong fluorescence

Fluorescence of PP tubes and PE pellets after 90° C. for 5 hours versus 24 hours at 37° C. or 22° C. [3]: much stronger
Structure (SMILES): CN(C)c1ccc(-c2c3n(c4ccccc24)-c2cc(Cl)ccc2C3=O)cc1 [Aldol™ 518 dye]

Color of tube [1]: No color | Fluorescence of tube [1]: No fluorescence
Structure (SMILES): CN(C)c1ccc(C(=O)c2ccccc2-n2cc(O[C@@H]3O[C@H](CO)[C@H](O)[C@H](O)[C@H]3O)c3ccc(Cl)cc32)cc1 [Aldol™ 518 beta-D-galactoside]
Color (E. coli [6]; [14]): Red | Color (E. coli [6]; [15]): Red | Color (E. coli [6]; [16]): Red | Color (E. coli [6]; [17]): Red | Color (E. coli [6]; [18]): Red | Color (E. coli [6]; [19]): Red | Color (E. coli [6]; [20]): Red | Color (E. coli [6]; [21]): Red | Color (E. coli [6]; [22]): Red | Color (S. enteritidis [7]; [14]): Beige | Color (S. enteritidis [7]; [15]): Beige | Color (S. enteritidis [7]; [16]): Beige | Color (S. enteritidis [7]; [17]): Beige | Color (S. enteritidis [7]; [18]): Beige | Color (S. enteritidis [7]; [19]): Beige | Color (S. enteritidis [7]; [20]): Beige | Color (S. enteritidis [7]; [21]): Beige | Color (S. enteritidis [7]; [22]): Beige

Structure (SMILES): COc1ccc(C(=O)c2ccccc2-n2cc(NC(=O)[C@H](C)N)c3ccccc32)c(OC)c1 [Aldol™ 470 L-alanine amide]
Fluorescence of E. coli colonies (E. coli [8]): No fluorescence

Stability of stamping on LDPE ([9]; under the conditions tested, compared with the other dyes): most stable | Fluorescence color ([2]; Acetone): Red | Fluorescence intensity ([2]; Acetone): Medium | Fluorescence color ([2]; Ethanol): Red | Fluorescence intensity ([2]; Ethanol): Weak | Fluorescence color ([2]; Mineral oil): Yellow | Fluorescence color ([2]; Silicon oil): Red | Fluorescence color ([2]; Water): Red | Fluorescence of PP tubes and PE pellets after 90° C. for 5 hours versus 24 hours at 37° C. or 22° C. [3]: much stronger
Structure (SMILES): CN(C)c1ccc(-c2c3n(c4ccccc24)-c2ccccc2C3=O)cc1 [Aldol™ 515 dye]
Fluorescence of PP tubes and PE pellets, comparison between dyes [3]: more fluorescence than Aldol™ 518 dye and Aldol™ 470 dye

Color of tube [1]: No color | Fluorescence of tube [1]: No fluorescence
Structure (SMILES): COc1ccc(C(=O)c2ccccc2-n2cc(O[C@@H]3O[C@H](CO)[C@H](O)[C@H](O)[C@H]3O)c3ccccc32)c(OC)c1 [Aldol™ 470 beta-D-galactoside]

Fluorescence of imprint on LDPE film ([9]; After soaking for 18 h in ethanol): No fluorescence | Fluorescence color ([2]; Acetone): Green | Fluorescence intensity ([2]; Acetone): Strong | Fluorescence color ([2]; Ethanol): orange | Fluorescence color ([2]; Mineral oil): Green | Fluorescence intensity ([2]; Mineral oil): Medium | Fluorescence color ([2]; Paraffin oil): Green | Fluorescence intensity ([2]; Paraffin oil): Medium | Fluorescence intensity ([2]; Silicon oil): Weak | Fluorescence of PP tubes and PE pellets after 90° C. for 5 hours versus 24 hours at 37° C. or 22° C. [3]: much stronger
Structure (SMILES): COc1ccc(-c2c3n(c4ccccc24)-c2ccccc2C3=O)c(OC)c1 [Aldol™ 470 dye]

Structure (SMILES): COc1ccc(C(=O)c2ccccc2-n2cc(OP(=O)(O)O)c3ccccc32)c(OC)c1 [Aldol™ 470 phosphate]
Fluorescence or coloration of spot of alpha-amylase (negative control) [10]: No fluorescence or coloration

Color of tube [1]: Very light orange
Structure (SMILES): CC(=O)Oc1cn(-c2ccccc2C(=O)c2ccc(N(C)C)cc2)c2ccccc12 [Aldol ™ 515 acetate]

Color of tube [1]: Light yellow
Structure (SMILES): COc1ccc(C(=O)c2ccccc2-n2cc(OC(C)=O)c3ccccc32)c(OC)c1 [Aldol ™ 470 acetate]

Structure (SMILES): Cn1cccc1C(=O)c1ccccc1-n1cc(O[C@@H]2O[C@H](CO)[C@H](O)[C@H](O)[C@H]2O)c2ccc(Cl)cc21 [Aldol™ 495 beta-D-galactoside]
Fluorescence of PP tube under UV light (366 nm) (E. coli [11]; E. coli, 0.4 mM in peptone broth, 16 h incubation): Strong green | Fluorescence of glass tube (E. coli [11]; E. coli, 0.4 mM in peptone broth, glass test tubes): no fluorescence | Fluorescence of PP tube under UV light (366 nm) (E. coli [11]; E. coli, after autoclaving and emptying tube): Strong green | Fluorescence of PP tube under UV light (366 nm) (E. coli [11]; E. coli, after washing in dish-washer): Strong green | Stability under autoclaving conditions (E. coli [11]; in the medium tested): stable under autoclaving conditions | Fluorescence of E. coli colonies (E. coli [8]): No fluorescence | Color of tube [1]: No color | Fluorescence of tube [1]: No fluorescence | Color under white light ([12]; 0.5 mM, pH 7.3, glass, polystyrene and polypropylene tubes with beta-galactosidase): red-brown precipitate | Time until new polypropylene tube started to fluoresce after transfer of content ([12]; content of fluorescent PP tube transferred into new PP tube): around 10 minutes | Fluorescence of PP tube under UV light (366 nm) (S. enteritidis [13]; 0.4 mM in peptone broth, 16 h incubation): No fluorescence | Fluorescence of glass tube (S. enteritidis [13]; 0.4 mM in peptone broth, glass test tubes): no fluorescence | Fluorescence of PP tube under UV light (366 nm) (S. enteritidis [13]; after autoclaving and emptying tube): No fluorescence | Fluorescence of PP tube under UV light (366 nm) (S. enteritidis [13]; after washing in dish-washer): No fluorescence
